Assay results reported in patent publication US20250353891A1 (MEDIMMUNE LIMITED, priority 2022, published 2025).
Starred links: 1 amine or outer side, 2 acyl side, 3 side chain; linkers in the order of their positions; H or OH if unused. Non-standard residues stand in square brackets, D forms with d. Residues, ends and D or L forms follow the SMILES beside them. Groups on a side chain read outwards from the residue. *: point of attachment. C20 diacid = O=C(O)CCCCCCCCCCCCCCCCCCC(=O)*; C18 diacid = O=C(O)CCCCCCCCCCCCCCCCC(=O)*; γGlu = O=C(O)[C@H](CCC(=O)[*:2])N[*:1]; αMeF = C[C@](N)(Cc1ccccc1)C(=O)O; AEEA = NCCOCCOCC(=O)O; Aib = CC(C)(N)C(=O)O

What was measured:
[1] = molecular target: human GLP-1 receptor (hGLP-1R) (Homo sapiens, UniProt P43220); test: cAMP production (HTRF) in CHO cells expressing hGLP-1R; assay type: cell-based; design: expressed in transfected cells; settings: for EC50: Table 7, peptides modified at position 20, cAMP in CHO hGLP-1R cells, geometric mean, read-out: hGLP-1R EC50; for % Relative Potency Ratio: Table 7, % GLP-1R activity relative to GLP-1 / % GlucR activity relative to glucagon
Method in brief: (§1)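 Potency values represent EC50 from 4-parameter logistic curves of HTRF % Delta F signal. Receptor-expressing CHO cells (hGCGR 2×10^5 cells/mL, hGLP-1R 1×10^5 cells/mL) were exposed for 30 min at room temperature before two-step cAMP detection.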

[2] = molecular target: human glucagon receptor (hGCGR) (Homo sapiens, UniProt P47871); test: cAMP production (HTRF) in CHO cells expressing hGCGR; assay type: cell-based; design: expressed in transfected cells; settings: Table 7, peptides modified at position 20; cAMP in CHO hGCGR cells; geometric mean; read-out: hGluc-R EC50
Method in brief: as §1

human GLP-1 receptor (hGLP-1R), sequence (P43220 24-463): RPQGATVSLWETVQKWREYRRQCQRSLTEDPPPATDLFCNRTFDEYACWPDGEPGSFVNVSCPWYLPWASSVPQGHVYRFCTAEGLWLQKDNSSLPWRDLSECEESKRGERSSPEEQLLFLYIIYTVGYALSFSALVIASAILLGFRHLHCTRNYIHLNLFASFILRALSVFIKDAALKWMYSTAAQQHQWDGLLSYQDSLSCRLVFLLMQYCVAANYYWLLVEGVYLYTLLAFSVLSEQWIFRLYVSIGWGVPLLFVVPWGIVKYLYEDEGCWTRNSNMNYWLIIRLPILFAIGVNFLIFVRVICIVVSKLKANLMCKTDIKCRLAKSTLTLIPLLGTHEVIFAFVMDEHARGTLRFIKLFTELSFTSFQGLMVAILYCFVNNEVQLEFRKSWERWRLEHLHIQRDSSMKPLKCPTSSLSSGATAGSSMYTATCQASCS
human glucagon receptor (hGCGR), sequence (P47871 26-477): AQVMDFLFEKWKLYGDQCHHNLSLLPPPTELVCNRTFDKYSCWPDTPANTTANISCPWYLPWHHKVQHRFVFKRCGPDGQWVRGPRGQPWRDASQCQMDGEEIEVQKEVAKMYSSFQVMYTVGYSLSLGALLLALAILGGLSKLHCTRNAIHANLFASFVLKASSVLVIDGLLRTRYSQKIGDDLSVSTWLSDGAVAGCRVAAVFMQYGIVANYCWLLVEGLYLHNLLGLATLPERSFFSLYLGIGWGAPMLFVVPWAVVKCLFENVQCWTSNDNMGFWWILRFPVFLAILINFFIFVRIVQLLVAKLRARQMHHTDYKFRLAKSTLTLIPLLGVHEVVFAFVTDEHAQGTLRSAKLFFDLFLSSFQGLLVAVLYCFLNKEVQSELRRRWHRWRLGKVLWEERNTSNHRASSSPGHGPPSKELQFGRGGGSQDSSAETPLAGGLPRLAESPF

EC50 [1] [nM] | % Relative Potency Ratio [1] | EC50 [2] [nM] | SMILES
0.51 | 0.4 | 0.102 | CC[C@H](C)[C@H](NC(=O)[C@H](Cc1c[nH]c2ccccc12)NC(=O)[C@H](CCC(N)=O)NC(=O)[C@@H](NC(=O)[C@](C)(Cc1ccccc1)NC(=O)[C@H](CC(=O)O)NC(=O)[C@H](CCCCNC(=O)COCCOCCNC(=O)COCCOCCNC(=O)CC[C@H](NC(=O)CCCCCCCCCCCCCCCCC(=O)O)C(=O)O)NC(=O)[C@H](C)NC(=O)[C@H](C)NC(=O)[C@H](CCCNC(=N)N)NC(=O)[C@H](CO)NC(=O)[C@H](CC(=O)O)NC(=O)[C@H](CC(C)C)NC(=O)[C@H](Cc1ccc(O)cc1)NC(=O)[C@H](CCCCN)NC(=O)[C@H](CO)NC(=O)[C@@H](NC(=O)[C@H](CC(=O)O)NC(=O)[C@H](CO)NC(=O)[C@@H](NC(=O)[C@H](Cc1ccccc1)NC(=O)[C@H](CO)NC(=O)CNC(=O)[C@H](Cc1c[nH]cn1)NC(=O)C(C)(C)NC(=O)[C@@H](N)Cc1c[nH]cn1)[C@@H](C)O)C(C)C)C(C)C)C(=O)N[C@@H](C)C(=O)N[C@@H](CC(N)=O)C(=O)N[C@H](C(N)=O)[C@@H](C)O [Peptide 294] (H-H[Aib]HGSFTSDVSKYLDSRAAK([AEEA-AEEA-γGlu-C18 diacid])D[αMeF]VQWIANT-NH2)
0.312 | 108.2 | 17.1 | CC[C@H](C)[C@H](NC(=O)C(C)(C)NC(=O)[C@H](CCC(N)=O)NC(=O)[C@@H](NC(=O)[C@](C)(Cc1ccccc1)NC(=O)[C@H](CC(=O)O)NC(=O)[C@H](CCCCNC(=O)COCCOCCNC(=O)COCCOCCNC(=O)CC[C@H](NC(=O)CC[C@H](NC(=O)CCCCCCCCCCCCCCCCCCC(=O)O)C(=O)O)C(=O)O)NC(=O)[C@H](C)NC(=O)[C@H](C)NC(=O)[C@H](CCCNC(=N)N)NC(=O)[C@H](CO)NC(=O)[C@H](CC(=O)O)NC(=O)[C@H](CC(C)C)NC(=O)C(C)(C)NC(=O)[C@H](CCCCN)NC(=O)[C@H](CO)NC(=O)[C@@H](NC(=O)[C@H](CC(=O)O)NC(=O)[C@H](CO)NC(=O)[C@@H](NC(=O)[C@](C)(Cc1ccccc1)NC(=O)[C@H](CO)NC(=O)CNC(=O)[C@H](Cc1c[nH]cn1)NC(=O)C(C)(C)NC(=O)[C@@H](N)Cc1c[nH]cn1)[C@@H](C)O)C(C)C)C(C)C)C(=O)N[C@@H](C)C(=O)N[C@@H](CC(N)=O)C(=O)N[C@H](C(N)=O)[C@@H](C)O [Peptide 295] (H-H[Aib]HGS[αMeF]TSDVSK[Aib]LDSRAAK([AEEA-AEEA-γGlu-γGlu-C20 diacid])D[αMeF]VQ[Aib]IANT-NH2)
0.0641 | 100.3 | 3.25 | CC[C@H](C)[C@H](NC(=O)C(C)(C)NC(=O)[C@H](CCC(N)=O)NC(=O)[C@@H](NC(=O)[C@](C)(Cc1ccccc1)NC(=O)[C@H](CC(=O)O)NC(=O)[C@H](CCCCNC(=O)COCCOCCNC(=O)COCCOCCNC(=O)CC[C@H](NC(=O)CCCCCCCCCCCCCCCCC(=O)O)C(=O)O)NC(=O)[C@H](C)NC(=O)[C@H](C)NC(=O)[C@H](CCCNC(=N)N)NC(=O)[C@H](CO)NC(=O)[C@H](CC(=O)O)NC(=O)[C@H](CC(C)C)NC(=O)C(C)(C)NC(=O)[C@H](CCCCN)NC(=O)[C@H](CO)NC(=O)[C@@H](NC(=O)[C@H](CC(=O)O)NC(=O)[C@H](CO)NC(=O)[C@@H](NC(=O)[C@](C)(Cc1ccccc1)NC(=O)[C@H](CO)NC(=O)CNC(=O)[C@H](Cc1c[nH]cn1)NC(=O)C(C)(C)NC(=O)[C@@H](N)Cc1c[nH]cn1)[C@@H](C)O)C(C)C)C(C)C)C(=O)N[C@@H](C)C(=O)N[C@@H](CC(N)=O)C(=O)N[C@H](C(N)=O)[C@@H](C)O [Peptide 296] (H-H[Aib]HGS[αMeF]TSDVSK[Aib]LDSRAAK([AEEA-AEEA-γGlu-C18 diacid])D[αMeF]VQ[Aib]IANT-NH2)
0.0304 | 6.8 | 0.104 | CC[C@H](C)[C@H](NC(=O)C(C)(C)NC(=O)[C@H](CCC(N)=O)NC(=O)[C@@H](NC(=O)[C@](C)(Cc1ccccc1)NC(=O)[C@H](CC(=O)O)NC(=O)[C@H](CCCCNC(=O)COCCOCCNC(=O)COCCOCCNC(=O)CC[C@H](NC(=O)CCCCCCCCCCCCCCCCC(=O)O)C(=O)O)NC(=O)[C@H](C)NC(=O)[C@H](C)NC(=O)[C@H](CCCNC(=N)N)NC(=O)[C@H](CO)NC(=O)[C@H](CC(=O)O)NC(=O)[C@H](CC(C)C)NC(=O)[C@](C)(Cc1ccccc1)NC(=O)[C@H](CCCNC(=N)N)NC(=O)[C@H](CO)NC(=O)[C@@H](NC(=O)[C@H](CC(=O)O)NC(=O)[C@H](CO)NC(=O)[C@@H](NC(=O)[C@](C)(Cc1ccccc1)NC(=O)[C@H](CO)NC(=O)CNC(=O)[C@H](Cc1c[nH]cn1)NC(=O)C(C)(C)NC(=O)[C@@H](N)Cc1c[nH]cn1)[C@@H](C)O)C(C)C)C(C)C)C(=O)N[C@@H](C)C(=O)N[C@@H](CC(N)=O)C(=O)N[C@H](C(N)=O)[C@@H](C)O [Peptide 297] (H-H[Aib]HGS[αMeF]TSDVSR[αMeF]LDSRAAK([AEEA-AEEA-γGlu-C18 diacid])D[αMeF]VQ[Aib]IANT-NH2)
0.0755 | 15.0 | 0.573 | CC[C@H](C)[C@H](NC(=O)C(C)(C)NC(=O)[C@H](CCC(N)=O)NC(=O)[C@@H](NC(=O)[C@](C)(Cc1ccccc1)NC(=O)[C@H](CC(=O)O)NC(=O)[C@H](CCCCNC(=O)COCCOCCNC(=O)COCCOCCNC(=O)CC[C@H](NC(=O)CC[C@H](NC(=O)CCCCCCCCCCCCCCCCCCC(=O)O)C(=O)O)C(=O)O)NC(=O)[C@H](C)NC(=O)[C@H](C)NC(=O)[C@H](CCCNC(=N)N)NC(=O)[C@H](CO)NC(=O)[C@H](CC(=O)O)NC(=O)[C@H](CC(C)C)NC(=O)[C@](C)(Cc1ccccc1)NC(=O)[C@H](CCCNC(=N)N)NC(=O)[C@H](CO)NC(=O)[C@@H](NC(=O)[C@H](CC(=O)O)NC(=O)[C@H](CO)NC(=O)[C@@H](NC(=O)[C@](C)(Cc1ccccc1)NC(=O)[C@H](CO)NC(=O)CNC(=O)[C@H](Cc1c[nH]cn1)NC(=O)C(C)(C)NC(=O)[C@@H](N)Cc1c[nH]cn1)[C@@H](C)O)C(C)C)C(C)C)C(=O)N[C@@H](C)C(=O)N[C@@H](CC(N)=O)C(=O)N[C@H](C(N)=O)[C@@H](C)O [Peptide 298] (H-H[Aib]HGS[αMeF]TSDVSR[αMeF]LDSRAAK([AEEA-AEEA-γGlu-γGlu-C20 diacid])D[αMeF]VQ[Aib]IANT-NH2)
0.0758 | – | 0.193 | CC[C@H](C)[C@H](NC(=O)C(C)(C)NC(=O)[C@H](CCC(N)=O)NC(=O)[C@@H](NC(=O)[C@](C)(Cc1ccccc1)NC(=O)[C@H](CC(=O)O)NC(=O)[C@H](CCCCNC(=O)COCCOCCNC(=O)COCCOCCNC(=O)CC[C@H](NC(=O)CC[C@H](NC(=O)CCCCCCCCCCCCCCCCCCC(=O)O)C(=O)O)C(=O)O)NC(=O)[C@H](C)NC(=O)[C@H](C)NC(=O)[C@H](CCCNC(=N)N)NC(=O)[C@H](CO)NC(=O)[C@H](CC(=O)O)NC(=O)[C@H](CC(C)C)NC(=O)[C@](C)(Cc1ccccc1)NC(=O)[C@H](CCCCN)NC(=O)[C@H](CO)NC(=O)[C@@H](NC(=O)[C@H](CC(=O)O)NC(=O)[C@H](CO)NC(=O)[C@@H](NC(=O)[C@](C)(Cc1ccccc1)NC(=O)[C@H](CO)NC(=O)CNC(=O)[C@H](Cc1c[nH]cn1)NC(=O)C(C)(C)NC(=O)[C@@H](N)Cc1c[nH]cn1)[C@@H](C)O)C(C)C)C(C)C)C(=O)N[C@@H](C)C(=O)N[C@@H](CCC(=O)O)C(=O)N[C@H](C(N)=O)[C@@H](C)O [Peptide 299] (H-H[Aib]HGS[αMeF]TSDVSK[αMeF]LDSRAAK([AEEA-AEEA-γGlu-γGlu-C20 diacid])D[αMeF]VQ[Aib]IAET-NH2)
0.0991 | 2.0 | 0.0996 | CC[C@H](C)[C@H](NC(=O)C(C)(C)NC(=O)[C@H](CCC(N)=O)NC(=O)[C@@H](NC(=O)[C@](C)(Cc1ccccc1)NC(=O)[C@H](CC(=O)O)NC(=O)[C@H](CCCCNC(=O)COCCOCCNC(=O)COCCOCCNC(=O)CC[C@H](NC(=O)CCCCCCCCCCCCCCCCC(=O)O)C(=O)O)NC(=O)[C@H](C)NC(=O)[C@H](C)NC(=O)[C@H](CCCNC(=N)N)NC(=O)[C@H](CO)NC(=O)[C@H](CC(=O)O)NC(=O)[C@H](CC(C)C)NC(=O)[C@](C)(Cc1ccccc1)NC(=O)[C@H](CCCCN)NC(=O)[C@H](CO)NC(=O)[C@@H](NC(=O)[C@H](CC(=O)O)NC(=O)[C@H](CO)NC(=O)[C@@H](NC(=O)[C@](C)(Cc1ccccc1)NC(=O)[C@H](CO)NC(=O)CNC(=O)[C@H](Cc1c[nH]cn1)NC(=O)C(C)(C)NC(=O)[C@@H](N)Cc1c[nH]cn1)[C@@H](C)O)C(C)C)C(C)C)C(=O)N[C@@H](C)C(=O)N[C@@H](CC(N)=O)C(=O)N[C@H](C(=O)O)[C@@H](C)O [Peptide 303] (H-H[Aib]HGS[αMeF]TSDVSK[αMeF]LDSRAAK([AEEA-AEEA-γGlu-C18 diacid])D[αMeF]VQ[Aib]IANT-OH)
0.239 | 5.7 | 0.687 | CC[C@H](C)[C@H](NC(=O)C(C)(C)NC(=O)[C@H](CCC(N)=O)NC(=O)[C@@H](NC(=O)[C@](C)(Cc1ccccc1)NC(=O)[C@H](CC(=O)O)NC(=O)[C@H](CCCCNC(=O)COCCOCCNC(=O)COCCOCCNC(=O)CC[C@H](NC(=O)CC[C@H](NC(=O)CCCCCCCCCCCCCCCCCCC(=O)O)C(=O)O)C(=O)O)NC(=O)[C@H](C)NC(=O)[C@H](C)NC(=O)[C@H](CCCNC(=N)N)NC(=O)[C@H](CO)NC(=O)[C@H](CC(=O)O)NC(=O)[C@H](CC(C)C)NC(=O)[C@](C)(Cc1ccccc1)NC(=O)[C@H](CCCCN)NC(=O)[C@H](CO)NC(=O)[C@@H](NC(=O)[C@H](CC(=O)O)NC(=O)[C@H](CO)NC(=O)[C@@H](NC(=O)[C@](C)(Cc1ccccc1)NC(=O)[C@H](CO)NC(=O)CNC(=O)[C@H](Cc1c[nH]cn1)NC(=O)C(C)(C)NC(=O)[C@@H](N)Cc1c[nH]cn1)[C@@H](C)O)C(C)C)C(C)C)C(=O)N[C@@H](C)C(=O)N[C@@H](CC(N)=O)C(=O)N[C@H](C(=O)O)[C@@H](C)O [Peptide 304] (H-H[Aib]HGS[αMeF]TSDVSK[αMeF]LDSRAAK([AEEA-AEEA-γGlu-γGlu-C20 diacid])D[αMeF]VQ[Aib]IANT-OH)
